“Also recorded” adds a separate entry of the source. Residues, ends and D or L forms follow the SMILES beside them.
System: spontaneously hypertensive rats (SHR)
Assay: Antihypertensive activity: systolic arterial pressure (tail cuff) in spontaneously hypertensive rats
Type: in vivo, rat
Method: The effect is studied of various identified peptides and of some products containing them (for example egg white hydrolysed with pepsin for 3 hours and the fraction of it less than 3000 Da) on the arterial pressure of spontaneously hypertensive rats (SHR) and Wistar-Kyoto rats (WKY) which are the normotense controls for the SHR.
This study is conducted with SHR (10) and WKY of 17-24 weeks old and weight between 300 and 350 g, coming from Charles River Laboratories España, S. A. The rats are kept in cages of five by five and maintained at a stable temperature of 25° C. with light-dark cycles of 12 hours, ingesting freely available water and food. In order to carry out the measurement of systolic arterial pressure (SAP) “tail cuff” equipment is used (Le5001, Letica) which automatically provides a digital value of the SAP and records and facilitates the cardiac frequency of the animals. Various measurements are made and the average of all of them is obtained in order to achieve a reliable value of the SAP. Before positioning the cuff and transducer in the tail of the rats, the rats are exposed to a temperature of close to 30° C. in order to facilitate dilation of the caudal artery. Also, in order to ensure the reliability of the measurement, the animals are made to get used to the procedure for two weeks prior to conducting each assay in question.
The administration of the products to be assayed is done by means of an intragastric probe in a time margin of between 9 and 10 o'clock in the morning. The SHR used for the study had SAP values of between 230 and 280 mm Hg. The WKY used for the study at that moment had SAP values of between 160 and 200 mm Hg. Measurements of the SAP were taken from the animals periodically, every 2 hours, up to 8 hours post-administration of the products to be assayed; in addition, a SAP measurement was taken 24 hours after the administration of those products. As negative control (in order to establish the circadian variation of the SAP in probed rats) the measurements of the SAP obtained in rats which had been administered 1 ml of water by means of intragastric probe were used. As positive control, the measurements of the SAP obtained in rats which had been administered 50 mg/kg of Captopril (prototype ACEI drug) by means of intragastric probe were used. This dose of Captopril was administered to each rat in a volume of 1 ml. In order to establish the effect of the unhydrolysed egg white on the arterial pressure of the animals, similar assays to those described above were conducted, in which the animals were treated by the same procedure with 200 mg/kg of previously freeze-dried egg white (reference).
The results obtained are grouped and the mean±the standard error of measurement (SEM) is obtained for a minimum of 9 homogenous assays. The data of the treated animals are always compared with the data deemed to be a negative control. In order to compare them and obtain the statistical significance, Student's t-test for unpaired data is used and the difference for values of p<0.05 is considered significant.

CC[C@H](C)[C@H](NC(=O)[C@@H]1CCCN1C(=O)[C@H](Cc1ccc(O)cc1)NC(=O)[C@H](CCCNC(=N)N)NC(=O)[C@H](CCC(=O)O)NC(=O)[C@H](CCC(=O)O)NC(=O)[C@H](C)NC(=O)[C@@H](N)Cc1ccc(O)cc1)C(=O)N[C@@H](CC(C)C)C(=O)O [SEQ. ID. N^o 6] (H-YAEERYPIL-OH; N-terminus and C-terminus assumed)
time of maximum drop in SAP after administration (intragastric probe): 6 h
drop in systolic arterial pressure (SAP) / anti-hypertensive activity (in words) (single administration by intragastric probe): possess anti-hypertensive activity; also recorded: significant dose-dependent drop in the SAP; also recorded: clear and pronounced anti-hypertensive effect; also recorded: display anti-hypertensive activity

From patent US8227207B2, “Bioactive peptides derived from the proteins of egg white by means of enzymatic hydrolysis” (Consejo Superior de Investigaciones Cientifcas, priority 2004, dated 2012)
